Assays:
Thromboxane A2 receptor = target: T1, Thromboxane A2 receptor (Homo sapiens, UniProt P21731); type: functional, cell-based
T1 sequence (P21731 whole entry): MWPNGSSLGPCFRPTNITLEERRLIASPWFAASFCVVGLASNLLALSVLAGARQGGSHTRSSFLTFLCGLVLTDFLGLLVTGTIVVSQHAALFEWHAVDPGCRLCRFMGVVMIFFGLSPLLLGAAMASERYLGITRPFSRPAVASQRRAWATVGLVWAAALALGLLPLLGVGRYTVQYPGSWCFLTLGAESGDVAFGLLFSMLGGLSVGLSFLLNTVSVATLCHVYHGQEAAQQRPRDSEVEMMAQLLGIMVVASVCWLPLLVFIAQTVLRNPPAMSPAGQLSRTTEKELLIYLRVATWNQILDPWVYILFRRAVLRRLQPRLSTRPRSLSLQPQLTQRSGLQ

[1] = target: Sodium-dependent noradrenaline transporter (Homo sapiens, UniProt P23975)
[2] = target: T2, Amine oxidase [flavin-containing] A (Homo sapiens, UniProt P21397); type: functional
T2 sequence (P21397 whole entry): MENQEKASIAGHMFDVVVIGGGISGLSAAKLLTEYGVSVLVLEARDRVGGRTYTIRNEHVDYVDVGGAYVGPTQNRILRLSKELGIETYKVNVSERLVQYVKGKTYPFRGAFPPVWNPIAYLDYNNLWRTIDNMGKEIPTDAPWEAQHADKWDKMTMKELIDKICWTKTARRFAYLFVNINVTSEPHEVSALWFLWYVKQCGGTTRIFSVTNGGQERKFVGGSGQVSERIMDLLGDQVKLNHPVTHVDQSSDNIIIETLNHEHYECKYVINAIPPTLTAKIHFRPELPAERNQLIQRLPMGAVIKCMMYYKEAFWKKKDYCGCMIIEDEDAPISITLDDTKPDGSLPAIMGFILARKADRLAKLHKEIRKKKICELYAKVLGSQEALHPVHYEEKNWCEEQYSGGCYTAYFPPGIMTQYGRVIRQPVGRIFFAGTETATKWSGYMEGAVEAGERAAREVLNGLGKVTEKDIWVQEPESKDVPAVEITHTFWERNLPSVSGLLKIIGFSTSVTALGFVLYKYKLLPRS

[3] = target: Prostaglandin G/H synthase 1 (Homo sapiens, UniProt P23219); type: functional
Progesterone receptor = target: T3, Progesterone receptor (Homo sapiens, UniProt P06401)
T3 sequence (P06401 whole entry): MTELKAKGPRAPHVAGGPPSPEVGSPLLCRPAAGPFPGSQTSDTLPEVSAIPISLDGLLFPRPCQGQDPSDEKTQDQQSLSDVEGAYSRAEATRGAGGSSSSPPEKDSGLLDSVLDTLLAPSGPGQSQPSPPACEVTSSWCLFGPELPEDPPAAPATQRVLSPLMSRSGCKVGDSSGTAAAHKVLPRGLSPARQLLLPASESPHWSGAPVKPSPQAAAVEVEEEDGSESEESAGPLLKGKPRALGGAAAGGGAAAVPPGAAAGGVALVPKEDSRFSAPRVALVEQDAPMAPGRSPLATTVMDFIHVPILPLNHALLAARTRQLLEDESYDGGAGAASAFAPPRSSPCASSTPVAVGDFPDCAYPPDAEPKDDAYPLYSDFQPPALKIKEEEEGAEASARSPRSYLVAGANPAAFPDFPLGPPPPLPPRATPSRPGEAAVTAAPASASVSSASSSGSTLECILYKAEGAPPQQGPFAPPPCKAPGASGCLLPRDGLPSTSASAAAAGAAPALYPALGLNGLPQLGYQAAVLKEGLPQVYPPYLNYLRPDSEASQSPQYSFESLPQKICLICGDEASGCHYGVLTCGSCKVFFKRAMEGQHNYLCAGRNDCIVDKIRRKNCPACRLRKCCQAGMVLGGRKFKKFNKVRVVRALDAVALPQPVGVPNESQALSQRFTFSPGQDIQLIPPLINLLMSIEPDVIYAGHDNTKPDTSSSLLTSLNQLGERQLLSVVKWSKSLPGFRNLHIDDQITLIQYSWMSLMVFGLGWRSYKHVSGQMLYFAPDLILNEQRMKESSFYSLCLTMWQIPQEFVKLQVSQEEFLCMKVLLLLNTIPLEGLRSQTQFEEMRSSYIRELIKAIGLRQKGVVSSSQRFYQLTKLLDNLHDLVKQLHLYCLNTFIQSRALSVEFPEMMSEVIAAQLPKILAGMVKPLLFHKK

[4] = target: cGMP-inhibited 3',5'-cyclic phosphodiesterase 3A (Homo sapiens, UniProt Q14432); type: functional
[5] = target: T4, 5-hydroxytryptamine receptor 1A (Homo sapiens, UniProt P08908)
T4 sequence (P08908 whole entry): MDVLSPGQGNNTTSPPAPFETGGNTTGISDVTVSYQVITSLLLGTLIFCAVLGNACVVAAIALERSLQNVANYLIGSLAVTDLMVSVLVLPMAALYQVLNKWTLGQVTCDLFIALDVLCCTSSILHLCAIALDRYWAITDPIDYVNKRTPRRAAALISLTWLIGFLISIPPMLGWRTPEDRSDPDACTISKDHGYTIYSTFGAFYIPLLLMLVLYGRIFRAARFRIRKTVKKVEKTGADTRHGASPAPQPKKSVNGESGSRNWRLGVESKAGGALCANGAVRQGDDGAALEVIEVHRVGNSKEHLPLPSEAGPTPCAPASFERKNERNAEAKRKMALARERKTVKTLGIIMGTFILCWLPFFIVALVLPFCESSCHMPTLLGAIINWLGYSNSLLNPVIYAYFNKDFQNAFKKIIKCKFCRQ

[6] = target: Sodium-dependent serotonin transporter (Homo sapiens, UniProt P31645)
[7] = target: T5, Alpha-1A adrenergic receptor (Homo sapiens, UniProt P35348); type: functional, cell-based
T5 sequence (P35348 whole entry): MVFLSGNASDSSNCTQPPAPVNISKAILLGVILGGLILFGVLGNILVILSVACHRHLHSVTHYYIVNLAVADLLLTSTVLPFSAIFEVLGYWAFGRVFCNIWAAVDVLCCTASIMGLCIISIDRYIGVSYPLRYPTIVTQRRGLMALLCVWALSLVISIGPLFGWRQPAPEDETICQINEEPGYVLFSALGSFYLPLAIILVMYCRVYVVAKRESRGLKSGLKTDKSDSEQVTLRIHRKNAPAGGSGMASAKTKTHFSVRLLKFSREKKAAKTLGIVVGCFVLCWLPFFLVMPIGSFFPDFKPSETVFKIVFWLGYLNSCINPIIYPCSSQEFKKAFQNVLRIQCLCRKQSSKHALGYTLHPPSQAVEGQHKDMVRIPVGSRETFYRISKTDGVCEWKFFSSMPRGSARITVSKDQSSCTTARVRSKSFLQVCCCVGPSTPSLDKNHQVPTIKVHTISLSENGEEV

Measured: AC50
Note: assay procedure not described here.

Chain of cGMP-inhibited 3',5'-cyclic phosphodiesterase 3A (Q14432 whole entry): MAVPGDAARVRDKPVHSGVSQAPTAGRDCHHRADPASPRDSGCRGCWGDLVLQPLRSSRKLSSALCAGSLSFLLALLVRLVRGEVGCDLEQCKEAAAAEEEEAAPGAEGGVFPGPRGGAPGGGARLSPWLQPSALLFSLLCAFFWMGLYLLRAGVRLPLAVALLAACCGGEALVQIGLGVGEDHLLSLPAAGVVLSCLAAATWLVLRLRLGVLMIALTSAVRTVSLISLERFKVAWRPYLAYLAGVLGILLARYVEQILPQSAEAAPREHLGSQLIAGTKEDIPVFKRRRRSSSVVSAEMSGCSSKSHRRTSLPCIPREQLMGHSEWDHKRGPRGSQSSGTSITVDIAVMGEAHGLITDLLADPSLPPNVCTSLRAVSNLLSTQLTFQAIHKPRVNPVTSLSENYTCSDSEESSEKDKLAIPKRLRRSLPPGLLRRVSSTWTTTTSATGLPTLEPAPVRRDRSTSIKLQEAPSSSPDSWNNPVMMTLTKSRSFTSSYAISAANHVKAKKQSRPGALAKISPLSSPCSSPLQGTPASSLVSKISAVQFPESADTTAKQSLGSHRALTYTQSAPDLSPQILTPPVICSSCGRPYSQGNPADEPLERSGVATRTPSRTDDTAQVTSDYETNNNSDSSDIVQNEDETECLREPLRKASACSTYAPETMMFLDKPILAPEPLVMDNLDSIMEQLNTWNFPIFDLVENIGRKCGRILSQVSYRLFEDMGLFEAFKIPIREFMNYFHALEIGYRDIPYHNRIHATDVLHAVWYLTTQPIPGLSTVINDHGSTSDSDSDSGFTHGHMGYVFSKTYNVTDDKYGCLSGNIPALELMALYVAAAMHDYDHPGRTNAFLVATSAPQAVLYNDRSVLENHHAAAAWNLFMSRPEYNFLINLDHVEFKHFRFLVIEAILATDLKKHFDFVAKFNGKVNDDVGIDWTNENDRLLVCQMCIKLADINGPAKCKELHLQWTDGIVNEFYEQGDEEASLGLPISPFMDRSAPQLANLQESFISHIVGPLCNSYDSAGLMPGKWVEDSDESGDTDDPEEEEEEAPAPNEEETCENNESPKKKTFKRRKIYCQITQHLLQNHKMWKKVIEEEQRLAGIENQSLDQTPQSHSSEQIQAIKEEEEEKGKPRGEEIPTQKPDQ
Chain of Sodium-dependent serotonin transporter (P31645 whole entry): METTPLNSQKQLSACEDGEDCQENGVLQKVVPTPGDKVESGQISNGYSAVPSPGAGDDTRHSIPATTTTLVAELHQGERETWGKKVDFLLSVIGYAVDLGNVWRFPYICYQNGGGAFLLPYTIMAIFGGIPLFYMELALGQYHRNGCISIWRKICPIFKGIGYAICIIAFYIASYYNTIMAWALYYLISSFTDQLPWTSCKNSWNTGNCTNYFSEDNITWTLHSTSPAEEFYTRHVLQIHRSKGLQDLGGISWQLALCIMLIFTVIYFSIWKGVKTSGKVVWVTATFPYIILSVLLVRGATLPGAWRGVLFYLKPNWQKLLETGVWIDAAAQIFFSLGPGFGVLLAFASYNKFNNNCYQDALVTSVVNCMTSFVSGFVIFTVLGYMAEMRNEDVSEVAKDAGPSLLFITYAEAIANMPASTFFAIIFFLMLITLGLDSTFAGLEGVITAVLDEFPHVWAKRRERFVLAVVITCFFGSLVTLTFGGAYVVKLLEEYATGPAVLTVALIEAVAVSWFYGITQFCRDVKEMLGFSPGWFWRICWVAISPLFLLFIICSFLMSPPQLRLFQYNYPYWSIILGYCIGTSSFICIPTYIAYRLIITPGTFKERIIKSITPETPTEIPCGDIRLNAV
Chain of Prostaglandin G/H synthase 1 (P23219 whole entry): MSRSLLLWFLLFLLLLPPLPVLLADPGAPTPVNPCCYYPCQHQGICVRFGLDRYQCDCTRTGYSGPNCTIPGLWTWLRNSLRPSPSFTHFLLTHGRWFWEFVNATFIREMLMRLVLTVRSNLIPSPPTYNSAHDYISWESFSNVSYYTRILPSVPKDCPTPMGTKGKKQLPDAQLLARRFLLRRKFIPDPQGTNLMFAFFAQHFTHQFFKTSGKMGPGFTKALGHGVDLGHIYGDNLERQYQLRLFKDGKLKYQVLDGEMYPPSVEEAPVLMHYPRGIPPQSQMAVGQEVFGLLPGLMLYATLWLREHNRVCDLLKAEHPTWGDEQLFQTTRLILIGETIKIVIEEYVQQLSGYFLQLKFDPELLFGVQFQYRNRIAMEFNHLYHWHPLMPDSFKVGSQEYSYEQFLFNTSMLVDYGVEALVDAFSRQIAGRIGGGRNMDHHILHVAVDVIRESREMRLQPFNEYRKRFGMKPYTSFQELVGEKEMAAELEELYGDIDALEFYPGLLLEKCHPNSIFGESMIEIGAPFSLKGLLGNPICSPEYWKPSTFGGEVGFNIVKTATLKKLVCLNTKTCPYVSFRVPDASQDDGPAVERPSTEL
Chain of Sodium-dependent noradrenaline transporter (P23975 whole entry): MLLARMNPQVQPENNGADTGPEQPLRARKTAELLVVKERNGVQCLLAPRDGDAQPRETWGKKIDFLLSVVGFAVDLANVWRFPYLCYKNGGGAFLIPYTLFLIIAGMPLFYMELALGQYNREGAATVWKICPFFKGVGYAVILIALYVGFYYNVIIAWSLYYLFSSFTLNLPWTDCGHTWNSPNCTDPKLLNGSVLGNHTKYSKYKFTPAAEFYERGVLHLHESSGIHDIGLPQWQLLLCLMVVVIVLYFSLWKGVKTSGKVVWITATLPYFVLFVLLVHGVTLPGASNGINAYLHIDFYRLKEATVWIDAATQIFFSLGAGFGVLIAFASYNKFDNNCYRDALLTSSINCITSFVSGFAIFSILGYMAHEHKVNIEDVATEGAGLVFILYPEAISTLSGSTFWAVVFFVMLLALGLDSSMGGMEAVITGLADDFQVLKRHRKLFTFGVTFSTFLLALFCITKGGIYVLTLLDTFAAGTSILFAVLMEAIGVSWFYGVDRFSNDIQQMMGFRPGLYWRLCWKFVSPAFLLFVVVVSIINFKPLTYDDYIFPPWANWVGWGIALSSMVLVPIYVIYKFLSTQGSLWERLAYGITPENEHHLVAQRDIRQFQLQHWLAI

CO/N=C(\C(=O)N[C@@H]1C(=O)N2C(C(=O)OCOC(=O)C(C)(C)C)=C(C)CS[C@H]12)c1csc(N)n1
23.2 µM: [3]
not listed: [7]
> 30 µM: all other assays above

Cc1c(O)cccc1C(=O)N[C@@H](CSc1ccccc1)[C@H](O)CN1C[C@H]2CCCC[C@H]2C[C@H]1C(=O)NC(C)(C)C
18.2 µM: [1]
not listed: [6]
> 30 µM: all other assays above

O=C(Cn1ccnc1[N+](=O)[O-])NCc1ccccc1 [BENZNIDAZOLE]
not listed: [7]
> 30 µM: all other assays above

CN(Cc1cc(Br)cc(Br)c1N)C1CCCCC1 [BROMHEXINE]
22 µM: [1]
not listed: [6]
> 30 µM: all other assays above

COCC1=C(C(=O)OC(C)OC(=O)OC(C)C)N2C(=O)[C@@H](NC(=O)/C(=N\OC)c3csc(N)n3)[C@H]2SC1 (stereo partly specified) [CEFPODOXIME PROXETIL]
18.1 µM: [3]
not listed: [7]
> 30 µM: all other assays above

CN1CCN(C(c2ccccc2)c2ccccc2)CC1 [CYCLIZINE]
not listed: [6]
> 30 µM: all other assays above

NS(=O)(=O)c1cc2c(cc1Cl)NC(CC1CCCC1)NS2(=O)=O (stereo unspecified) [CYCLOPENTHIAZIDE]
not listed: [7]
> 30 µM: all other assays above

C[C@@H]1C[C@H]2[C@@H]3CCC4=CC(=O)C=C[C@]4(C)[C@@]3(F)[C@@H](O)C[C@]2(C)[C@H]1C(=O)CO [DESOXIMETASONE]
0.0331 µM: Progesterone receptor
not listed: [6]
> 30 µM: all other assays above

CC1=NN(c2ccccc2)C(=O)C1 [EDARAVONE]
not listed: [6]
> 30 µM: all other assays above

N/N=c1/cc2c(n[nH]1)CCN(C(=O)c1ccccc1)C2 [ENDRALAZINE]
not listed: [7]
> 30 µM: all other assays above

CC(C)=CCC1C(=O)N(c2ccccc2)N(c2ccccc2)C1=O [FEPRAZONE]
0.26 µM: [3]
not listed: [7]
> 30 µM: all other assays above

Oc1c(I)cc(I)c2cccnc12 [IODOQUINOL]
> 10 µM: [5]
3.36 µM: [4]
0.874 µM: [1]
not listed: [6]
> 30 µM: all other assays above

CN1C(=O)N(C)C2C1N(C)C(=O)N2C (stereo unspecified) [MEBICAR]
not listed: [7]
> 30 µM: all other assays above

CC(=O)O[C@]1(C(C)=O)CC[C@H]2[C@@H]3C[C@H](C)C4=CC(=O)CC[C@]4(C)[C@H]3CC[C@@]21C [MEDROXYPROGESTERONE ACETATE]
> 10 µM: [3]
not listed: Progesterone receptor | [6]
> 30 µM: all other assays above

Cn1cc[nH]c1=S [METHIMAZOLE]
0.541 µM: [3]
not listed: [6]
> 30 µM: all other assays above

CO[C@@]12[C@H](COC(N)=O)C3=C(C(=O)C(C)=C(N)C3=O)N1C[C@@H]1N[C@@H]12 [MITOMYCIN]
not listed: [6]
> 30 µM: all other assays above

Oc1cccc2cccnc12 [OXYQUINOLINE]
not listed: [6]
> 30 µM: all other assays above

Nc1nc2c(ncn2CCC(CO)CO)c(=O)[nH]1 [PENCICLOVIR]
not listed: [6]
> 30 µM: all other assays above

O=C1CCC(N2C(=O)c3ccccc3C2=O)C(=O)N1 (stereo unspecified) [THALIDOMIDE]
not listed: [6]
> 30 µM: all other assays above

Source: ChEMBL document CHEMBL5291721, “A preclinical secondary pharmacology resource illuminates target-adverse drug reaction associations of marketed drugs” (Nat Commun, 2023)
